Reference: publication PMC12120022, “Discovery and chemical optimisation of a potent, Bi-cyclic antimicrobial inhibitor of Escherichia coli PBP3” (Communications Biology, 2025)
Where a SMILES comes first, the peptide text is derived from it.

target: T1, EcPBP3 (Escherichia coli, UniProt P0AD68); experiment: Fluorescence polarisation competition assay with fluorescent Bicycle tracer (tracer 1 / BCY12820); format: binding; conditions: protein 9.4 nM sets sensitivity limit, top concentration 5 µM, read-out: Ki (nM) by fluorescence polarisation with tracer 1 (BCY12820 as tracer), Geometric mean (Lower 95% CI; Upper 95% CI, n=number of values)
T1 construct: For assays, selections and SPR a construct with residues 60–588 which has the N-terminal domain, but not the transmembrane helix, was used; made in house
T1 sequence (P0AD68 60-588): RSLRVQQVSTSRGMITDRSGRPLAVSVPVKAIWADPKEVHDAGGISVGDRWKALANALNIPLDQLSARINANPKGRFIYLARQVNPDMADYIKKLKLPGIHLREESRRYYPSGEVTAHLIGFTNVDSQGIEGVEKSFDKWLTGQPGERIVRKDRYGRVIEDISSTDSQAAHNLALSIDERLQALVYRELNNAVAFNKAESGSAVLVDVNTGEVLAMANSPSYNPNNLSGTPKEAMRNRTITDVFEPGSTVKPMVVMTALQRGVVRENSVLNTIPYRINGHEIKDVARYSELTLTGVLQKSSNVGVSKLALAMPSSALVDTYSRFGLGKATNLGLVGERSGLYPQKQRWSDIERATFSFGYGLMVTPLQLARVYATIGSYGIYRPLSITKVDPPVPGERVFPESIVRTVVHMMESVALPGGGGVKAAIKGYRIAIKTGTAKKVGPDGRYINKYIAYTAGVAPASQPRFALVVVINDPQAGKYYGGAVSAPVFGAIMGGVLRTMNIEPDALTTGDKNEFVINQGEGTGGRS
Experimental: Competition fluorescence polarisation assays were run by observing the fluorescence polarisation of a fluorescent “tracer” Bicycle molecule which competes against an unlabelled peptide for binding to the EcPBP3 target. 10 µL of protein (9.4 nM) was mixed with either 5 µL of peptide or 5 µL of buffer and then the assay was initiated by the addition of 10 µL of tracer (1 nM) (final volume 25 µL), in a black 384 low bind, low volume plate (Corning). The buffer was 10 mM HEPES (Sigma), 2% (v/v) glycerol (Sigma), 300 mM NaCl (Sigma), adjusted to pH 8. The plate was incubated for 1 h at 25 °C and then read in a PHERAstar FS (BMG) using with an “FP 485 520 520” optic module (excitation 485 nm, emission 520 nm). The gain was determined immediately prior to the read on a tracer-only well.
Dotmatics (Dotmatics) workflows performing the above calculations were used to process the data. Values quoted are the geometric means of at least 2 repeats.

Compound	Ki
CC(C)[C@@H]1NC(=O)[C@H](Cc2c[nH]c3ccccc23)NC(=O)[C@@H]2CCCN2C(=O)[C@@H]2CSCCC(=O)N3CN(CN(C3)C(=O)CCSC[C@H](NC(=O)[C@H](C)N)C(=O)N[C@@H](CO)C(=O)N[C@@H](Cc3ccccc3)C(=O)N[C@@H](CO)C(=O)N[C@@H](CCCCNC(=N)N)C(=O)N2)C(=O)CCSC[C@@H](C(=O)N[C@@H](C)C(N)=O)NC(=O)CNC(=O)[C@H](CCC(=O)O)NC1=O [Peptide 35] (HELM PEPTIDE1{A.C.S.F.S.[N=C(N)NCCCC[C@H](N[*:1])C(=O)[*:2]].C.P.W.V.E.G.C.A.[am]}|CHEM1{[O=C(CC[*:1])N1CN(C(=O)CC[*:2])CN(C(=O)CC[*:3])C1]}$PEPTIDE1,CHEM1,2:R3-1:R1|PEPTIDE1,CHEM1,7:R3-1:R2|PEPTIDE1,CHEM1,13:R3-1:R3$$$V2.0)	53.4 nM
C[C@H](N)C(=O)N[C@H]1CSCCC(=O)N2CN3CN(C2)C(=O)CCSC[C@H](NC(=O)[C@H](CCCCNC(=N)N)NC(=O)[C@@H]2CCCN2C(=O)[C@H](Cc2ccccc2)NC(=O)[C@H](CO)NC1=O)C(=O)N1CCC[C@H]1C(=O)N[C@@H](Cc1c[nH]c2ccccc12)C(=O)N[C@@H]([C@@H](C)O)C(=O)N[C@@H](CCC(=O)O)C(=O)NCC(=O)N[C@H](C(=O)N[C@@H](C)C(N)=O)CSCCC3=O [Peptide 46] (HELM PEPTIDE1{A.C.S.F.P.[N=C(N)NCCCC[C@H](N[*:1])C(=O)[*:2]].C.P.W.T.E.G.C.A.[am]}|CHEM1{[O=C(CC[*:1])N1CN(C(=O)CC[*:2])CN(C(=O)CC[*:3])C1]}$PEPTIDE1,CHEM1,2:R3-1:R1|PEPTIDE1,CHEM1,7:R3-1:R2|PEPTIDE1,CHEM1,13:R3-1:R3$$$V2.0)	15.5 nM
CC(C)[C@@H]1NC(=O)[C@H](Cc2c[nH]c3ccccc23)NC(=O)[C@@H]2CCCN2C(=O)[C@@H]2CSCCC(=O)N3CN(CN(C3)C(=O)CCSC[C@H](NC(=O)[C@H](C)N)C(=O)N[C@@H](CO)C(=O)N[C@@H](Cc3c[nH]cn3)C(=O)N3CCC[C@H]3C(=O)N[C@@H](CCCCNC(=N)N)C(=O)N2)C(=O)CCSC[C@@H](C(=O)N[C@@H](C)C(N)=O)NC(=O)CNC(=O)[C@H](CCC(=O)O)NC1=O [Peptide 32] (HELM PEPTIDE1{A.C.S.H.P.[N=C(N)NCCCC[C@H](N[*:1])C(=O)[*:2]].C.P.W.V.E.G.C.A.[am]}|CHEM1{[O=C(CC[*:1])N1CN(C(=O)CC[*:2])CN(C(=O)CC[*:3])C1]}$PEPTIDE1,CHEM1,2:R3-1:R1|PEPTIDE1,CHEM1,7:R3-1:R2|PEPTIDE1,CHEM1,13:R3-1:R3$$$V2.0)	115 nM
CC(C)[C@@H]1NC(=O)[C@H](Cc2c[nH]c3ccccc23)NC(=O)[C@@H]2CCCN2C(=O)[C@@H]2CSCCC(=O)N3CN(CN(C3)C(=O)CCSC[C@H](NC(=O)[C@H](C)N)C(=O)N[C@@H](CC(N)=O)C(=O)N[C@@H](Cc3ccccc3)C(=O)N3CCC[C@H]3C(=O)N[C@@H](CCCCNC(=N)N)C(=O)N2)C(=O)CCSC[C@@H](C(=O)N[C@@H](C)C(N)=O)NC(=O)CNC(=O)[C@H](CCC(=O)O)NC1=O [Peptide 29] (HELM PEPTIDE1{A.C.N.F.P.[N=C(N)NCCCC[C@H](N[*:1])C(=O)[*:2]].C.P.W.V.E.G.C.A.[am]}|CHEM1{[O=C(CC[*:1])N1CN(C(=O)CC[*:2])CN(C(=O)CC[*:3])C1]}$PEPTIDE1,CHEM1,2:R3-1:R1|PEPTIDE1,CHEM1,7:R3-1:R2|PEPTIDE1,CHEM1,13:R3-1:R3$$$V2.0)	< 9 nM
CC(C)[C@@H]1NC(=O)[C@H](Cc2c[nH]c3ccccc23)NC(=O)[C@@H]2CCCN2C(=O)[C@@H]2CSCCC(=O)N3CN(CN(C3)C(=O)CCSC[C@H](NC(=O)[C@H](C)N)C(=O)N[C@@H](CO)C(=O)N[C@@H](Cc3ccccc3)C(=O)N[C@@H](Cc3ccc(O)cc3)C(=O)N[C@@H](CCCCNC(=N)N)C(=O)N2)C(=O)CCSC[C@@H](C(=O)N[C@@H](C)C(N)=O)NC(=O)CNC(=O)[C@H](CCC(=O)O)NC1=O [Peptide 34] (HELM PEPTIDE1{A.C.S.F.Y.[N=C(N)NCCCC[C@H](N[*:1])C(=O)[*:2]].C.P.W.V.E.G.C.A.[am]}|CHEM1{[O=C(CC[*:1])N1CN(C(=O)CC[*:2])CN(C(=O)CC[*:3])C1]}$PEPTIDE1,CHEM1,2:R3-1:R1|PEPTIDE1,CHEM1,7:R3-1:R2|PEPTIDE1,CHEM1,13:R3-1:R3$$$V2.0)	27.1 nM
CC(C)C[C@@H]1NC(=O)[C@H](C(C)C)NC(=O)[C@H](Cc2c[nH]c3ccccc23)NC(=O)[C@@H]2CCCN2C(=O)[C@@H]2CSCCC(=O)N3CN(CN(C3)C(=O)CCSC[C@H](NC(=O)[C@H](C)N)C(=O)N[C@@H](CO)C(=O)N[C@@H](Cc3ccccc3)C(=O)N3CCC[C@H]3C(=O)N[C@@H](CCCCNC(=N)N)C(=O)N2)C(=O)CCSC[C@@H](C(=O)N[C@@H](C)C(N)=O)NC(=O)CNC1=O [Peptide 48] (HELM PEPTIDE1{A.C.S.F.P.[N=C(N)NCCCC[C@H](N[*:1])C(=O)[*:2]].C.P.W.V.L.G.C.A.[am]}|CHEM1{[O=C(CC[*:1])N1CN(C(=O)CC[*:2])CN(C(=O)CC[*:3])C1]}$PEPTIDE1,CHEM1,2:R3-1:R1|PEPTIDE1,CHEM1,7:R3-1:R2|PEPTIDE1,CHEM1,13:R3-1:R3$$$V2.0)	49.7 nM
CC(C)[C@@H]1NC(=O)[C@H](Cc2c[nH]c3ccccc23)NC(=O)[C@@H]2CCCN2C(=O)[C@@H]2CSCCC(=O)N3CN(CN(C3)C(=O)CCSC[C@@H](C(=O)N[C@@H](C)C(N)=O)NC(=O)[C@H](Cc3c[nH]cn3)NC(=O)[C@H](CCC(=O)O)NC1=O)C(=O)CCSC[C@H](NC(=O)[C@H](C)N)C(=O)N[C@@H](CO)C(=O)N[C@@H](Cc1ccccc1)C(=O)N1CCC[C@H]1C(=O)N[C@@H](CCCCNC(=N)N)C(=O)N2 [Peptide 53] (HELM PEPTIDE1{A.C.S.F.P.[N=C(N)NCCCC[C@H](N[*:1])C(=O)[*:2]].C.P.W.V.E.H.C.A.[am]}|CHEM1{[O=C(CC[*:1])N1CN(C(=O)CC[*:2])CN(C(=O)CC[*:3])C1]}$PEPTIDE1,CHEM1,2:R3-1:R1|PEPTIDE1,CHEM1,7:R3-1:R2|PEPTIDE1,CHEM1,13:R3-1:R3$$$V2.0)	< 9 nM
CC(C)[C@@H]1NC(=O)[C@H](Cc2ccc(O)cc2)NC(=O)[C@@H]2CCCN2C(=O)[C@@H]2CSCCC(=O)N3CN(CN(C3)C(=O)CCSC[C@H](NC(=O)[C@H](C)N)C(=O)N[C@@H](CO)C(=O)N[C@@H](Cc3ccccc3)C(=O)N3CCC[C@H]3C(=O)N[C@@H](CCCCNC(=N)N)C(=O)N2)C(=O)CCSC[C@@H](C(=O)N[C@@H](C)C(N)=O)NC(=O)CNC(=O)[C@H](CCC(=O)O)NC1=O [Peptide 42] (HELM PEPTIDE1{A.C.S.F.P.[N=C(N)NCCCC[C@H](N[*:1])C(=O)[*:2]].C.P.Y.V.E.G.C.A.[am]}|CHEM1{[O=C(CC[*:1])N1CN(C(=O)CC[*:2])CN(C(=O)CC[*:3])C1]}$PEPTIDE1,CHEM1,2:R3-1:R1|PEPTIDE1,CHEM1,7:R3-1:R2|PEPTIDE1,CHEM1,13:R3-1:R3$$$V2.0)	209 nM
CC(C)[C@@H]1NC(=O)[C@H](Cc2c[nH]c3ccccc23)NC(=O)[C@@H]2CCCN2C(=O)[C@@H]2CSCCC(=O)N3CN(CN(C3)C(=O)CCSC[C@H](NC(=O)[C@H](C)N)C(=O)N[C@@H](CO)C(=O)N[C@@H](Cc3ccccc3)C(=O)N3CCC[C@H]3C(=O)N[C@@H](CCCCNC(=N)N)C(=O)N2)C(=O)CCSC[C@@H](C(=O)N[C@@H](C)C(N)=O)NC(=O)CNC(=O)[C@@H]2CCCN2C1=O [Peptide 47] (HELM PEPTIDE1{A.C.S.F.P.[N=C(N)NCCCC[C@H](N[*:1])C(=O)[*:2]].C.P.W.V.P.G.C.A.[am]}|CHEM1{[O=C(CC[*:1])N1CN(C(=O)CC[*:2])CN(C(=O)CC[*:3])C1]}$PEPTIDE1,CHEM1,2:R3-1:R1|PEPTIDE1,CHEM1,7:R3-1:R2|PEPTIDE1,CHEM1,13:R3-1:R3$$$V2.0)	18 nM
